The target in series [1] is T1, human SGLT1 (Homo sapiens, UniProt P13866).
T1 construct: expressed in transfected cells
T1 sequence (P13866 1-664): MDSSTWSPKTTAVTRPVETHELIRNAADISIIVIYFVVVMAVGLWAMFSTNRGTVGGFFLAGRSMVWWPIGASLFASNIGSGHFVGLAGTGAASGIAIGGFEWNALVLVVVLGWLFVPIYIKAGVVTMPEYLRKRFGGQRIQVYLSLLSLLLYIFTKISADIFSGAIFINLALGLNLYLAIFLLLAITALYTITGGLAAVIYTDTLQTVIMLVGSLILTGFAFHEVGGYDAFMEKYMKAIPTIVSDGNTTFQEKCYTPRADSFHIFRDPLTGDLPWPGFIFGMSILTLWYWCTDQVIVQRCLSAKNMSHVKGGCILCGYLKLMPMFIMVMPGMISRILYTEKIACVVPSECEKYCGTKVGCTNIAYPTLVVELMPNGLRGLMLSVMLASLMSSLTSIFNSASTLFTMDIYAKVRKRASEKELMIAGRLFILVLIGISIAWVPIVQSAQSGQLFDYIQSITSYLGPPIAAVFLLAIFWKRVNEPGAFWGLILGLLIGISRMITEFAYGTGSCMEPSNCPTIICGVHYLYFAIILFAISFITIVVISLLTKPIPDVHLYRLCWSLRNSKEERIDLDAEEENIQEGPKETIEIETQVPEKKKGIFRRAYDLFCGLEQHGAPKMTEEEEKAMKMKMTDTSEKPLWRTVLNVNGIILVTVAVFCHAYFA
As to the kind of experiment: Assay for inhibitory effects on human SGLT1 activity (uptake of methyl-α-D-glucopyranoside). Type of series: cell-based. The note with it: CS1-5-11D cells (CHO-K1 stably expressing human SGLT1); uptake of 1 mM 14C-labeled α-MG, 37° C., 1 hour. On the procedure:
Assay for Inhibitory Effects on Human SGLT1 Activity
1) Cloning and Construction of the Vector Expressing Human SGLT1
The cDNA library was prepared for PCR amplification by reverse transcription from total RNA deprived from human small intestine (Ori gene) using oligo-dT as a primer. Using this cDNA library as a template, the DNA fragment coding 1 to 2005 bp of human SGLT1 (ACCESSION: M24847), which was reported by Hediger et al., was amplified by PCR method and inserted into the multi-cloning site of pcDNA3.1(−) (Invitrogen). The DNA sequence inserted was perfectly matched to the previously reported sequence of human SGLT1.
2) Establishment of Cell Line Stably Expressing Human SGLT1
The expression vector of human SGLT1 was digested by Sca I into a linear DNA. The linear DNA was transfected into CHO-K1 cells by means of lipofection (Effectene Transfection Reagent: QIAGEN). Neomycin resistant cell lines were selected by culture in the medium containing G418 (1 mg/mL, LIFE TECHNOLOGIES), and then the activity against the uptake of methyl-α-D-glucopyranoside was measured by the method described below. […] CS1-5–11D cells were cultured in the presence of G418 at 200 μg/mL.
3) Measurement of the Inhibitory Activity Against the Uptake of methyl-α-D-glucopyranoside (α-MG)
CS1-5-11D cells were seeded into a 96-well culture plate at a density of 3×10^4 cells/well and cultured for 2 days, and were used in the uptake assay. A mixture of non-labeled (Sigma) and ^14C-labeled α-MG (Amersham Pharmcia Biotec) added to the uptake buffer (pH 7.4; containing 140 mM sodium chloride, 2 mM potassium chloride, 1 mM calcium chloride, 1 mM magnesium chloride, 10 mM 2-[4-(2-hydroxyethyl)-1-piperazinyl]ethane sulfonic acid, and 5 mM tris(hydroxymethyl)aminomethane) at the final concentration of 1 mM. A test compound was dissolved in dimethyl sulfoxide, and then appropriately diluted with distilled water. The test compound solution was added to the uptake buffer containing 1 mM α-MG, and designated as a measurement buffer. For the control group, the measurement buffer without any test compound was prepared. For measuring the basal uptake, a basal buffer which contains 140 mM chorine chloride instead of 140 mM sodium chloride was prepared. After removing the culture medium of CS1-5-11D cells, 180 μL of the pre-treatment buffer (the uptake buffer not containing α-MG) was added to each well and incubated at 37° C. for 10 minutes. After repeating the same treatment, the pre-treatment buffer was removed. To each well was added 75 μL of the measurement buffer or the basal buffer was added and incubated at 37° C. for 1 hour. After removing the measurement buffer, cells were washed twice with 180 μL per well of the washing buffer (the basal buffer containing 10 mM non-labeled α-MG). The cells were solubilized by 75 μL per well of 0.2 mol/L sodium hydroxide. The cell lysates were transferred into PicoPlates (Packard), and then added 150 μL of MicroScint-40 (Packard) and mixed. Radioactivity was measured by means of micro-scintillation counter TopCount (Packard). One hundred % was set to the difference between the uptake in the control group and the basal uptake, and the uptake of methyl α-D-glucopyranoside at each drug concentration were calculated. The drug concentration, at which 50% uptake of methyl α-D-glucopyranoside was inhibited (IC50 value), was calculated using logit plot.

For series [2], the system named is diabetic rats. Put plainly: Assay for inhibitory effects on blood glucose level increase in rats (liquid meal tolerance test). Type of series: in vivo. Particulars: diabetic rats (nicotinamide/streptozotocin), 10 mg/kg orally, liquid meal 15 kcal/kg, mean±S.E. On the procedure: Assay for Inhibitory Effects on Blood Glucose Level Increase in Rats
1) Preparation of Diabetic Rat Model
Ten weeks old rats were injected nicotinamide (230 mg/kg) intraperitoneally. Fifteen minutes after injection, they were injected streptozotocin (65 mg/kg) intravenously from tail vain under anesthesia with ether. Two weeks later, rats were fasted for 5 hours and then oral glucose tolerance test (2 g/kg) was done.
2) Liquid Meal Tolerance Test
After 16 hours fasted, the diabetic rats were orally administered a test compound (10 mg/kg), which was suspended with 0.5% sodium carboxymethylcellulose (CMC), in the drug-treating group, or 0.5% sodium carboxymethylcellulose (CMC) alone in a control group. Immediately after the compound administration, 15 kcal/kg of liquid meal (No. 038, Conrol diet, assorted with dextrin and maltose; Oriental Yeast Co., Ltd.) was loaded orally. The blood was collected from tail artery immediately before (0 h), at 0.5 and 1 hour after administration, and treated with heparin immediately. The blood was centrifuged, and the plasma was collected to quantify the plasma glucose concentration. The values in the table are presented as the mean±S.E.

In series [3] the test system is Male C57BL/6J mice. As to the kind of experiment: Acute toxicity test. Type of series: in vivo. Particulars: n=5, oral 1 g/kg, observed for 48 hours. On the procedure:
Male C57BL/6J mice (CLEA Japan, Inc.; 17 weeks old, 20–23 g, n=5) were fasted for 4 hours.

SMILES strings stand for the structures.

As a reminder, the IC50 is the concentration that inhibits the measured activity by half. Higher therefore signals a need for much substance.

`CC(C)c1[nH]nc(O[C@@H]2O[C@H](CO)[C@@H](O)[C@H](O)[C@H]2O)c1Cc1ccccc1OCc1ccccc1` [Example 2, 4-(2-Benzyloxybenzyl)-3-(β-D-glucopyranosyloxy)-5-isopropyl-1H-pyrazole] returned an IC50 in series [1] of 18 nM. Besides, the Plasma glucose concentration is recorded as 126 ± 7 mg/dL in series [2] (0 h (pretreatment)), 194 ± 7 mg/dL in series [2] (0.5 h after administration) and 219 ± 16 mg/dL in series [2] (1 h after administration). For the same compound, the Number of death in series [3] is on record as 0/5. Regarding `CC(C)c1c(Cc2ccccc2OCc2ccccc2)c(O[C@@H]2O[C@H](CO)[C@@H](O)[C@H](O)[C@H]2O)nn1CCO` [Example 9, 4-(2-Benzyloxybenzyl)-3-(β-D-glucopyranosyloxy)-1-(2-hydroxyethyl)-5-isopropyl-1H-pyrazole], in series [1], it took 8 nM to reach half-maximal inhibition (IC50). On the same count and under the same terms, as for `OCCn1nc(O[C@@H]2O[C@H](CO)[C@@H](O)[C@H](O)[C@H]2O)c(Cc2ccccc2OCc2ccccc2)c1C(F)(F)F` [Example 11, 4-(2-Benzyloxybenzyl)-3-(β-D-glucopyranosyloxy)-1-(2-hydroxyethyl)-5-trifluoromethyl-1H-pyrazole], the figure is 13 nM; as for `CC(C)c1[nH]nc(O[C@@H]2O[C@H](CO)[C@@H](O)[C@H](O)[C@H]2O)c1Cc1ccccc1OCc1cccc(O)c1` [Example 12, 3-(β-D-Glucopyranosyloxy)-4-[2-(3-hydroxybenzyloxy)benzyl]-5-isopropyl-1H-pyrazole], 35 nM; as for `OCCCn1nc(O[C@@H]2O[C@H](CO)[C@@H](O)[C@H](O)[C@H]2O)c(Cc2ccccc2OCc2ccccc2)c1C(F)(F)F` [Example 13, 4-(2-Benzyloxybenzyl)-3-(β-D-glucopyranosyloxy)-1-(3-hydroxypropyl)-5-trifluoromethyl-1H-pyrazole], 30 nM. Same read-out and setting: under `CC(C)c1[nH]nc(O[C@@H]2O[C@H](CO)[C@@H](O)[C@H](O)[C@H]2O)c1Cc1ccccc1OCc1cccc(Cl)c1` [Example 15, 4-[2-(3-Chlorobenzyloxy)benzyl]-3-(β-D-glucopyranosyloxy)-5-isopropyl-1H-pyrazole] stands 1 nM. Still for that read-out and setting: as for `CCc1c(Cc2ccccc2OCc2ccccc2)c(O[C@@H]2O[C@H](CO)[C@@H](O)[C@H](O)[C@H]2O)nn1CCO` [Example 19, 4-(2-Benzyloxybenzyl)-5-ethyl-3-(β-D-glucopyranosyloxy)-1-(2-hydroxyethyl)-1H-pyrazole], the figure is 80 nM.

`OC[C@H]1O[C@@H](Oc2n[nH]c(C(F)(F)F)c2Cc2ccccc2OCc2ccccc2)[C@H](O)[C@@H](O)[C@@H]1O` [Example 21, 4-(2-Benzyloxybenzyl)-3-(β-D-glucopyranosyloxy)-5-trifluoromethyl-1H-pyrazole] had an IC50 in series [1] of 14 nM. The same measure, in the same setting: as for `CC(C)c1[nH]nc(O[C@@H]2O[C@H](CO)[C@@H](O)[C@H](O)[C@H]2O)c1Cc1ccccc1OC1CCCCCC1` [Example 51, 4-(2-Cycloheptyloxybenzyl)-3-(β-D-glucopyranosyloxy)-5-isopropyl-1H-pyrazole], the figure is 194 nM.

(Values after patent US7217697B2, “Glucopyranosyloxypyrazole derivative medicinal composition containing the same medicinal use thereof and intermediate therefor” (Kissei Pharmaceutical Co., Ltd., priority 2001, dated 2007).)
